The source of these data is ChEMBL document CHEMBL3217445, “Optimising pharmacokinetics of glucokinase activators with matched triplicate design sets the discovery of AZD3651 and AZD9485” (Medchemcomm, 2013).

Values after ≈ are worked out from the molar mass of the structure shown. Active and inactive are the calls of the source. The calls are words filed in the database; no cut-off is given here.

Series [1] concerns Rattus norvegicus. Description: Glucose lowering activity in Zucker rat at 3 mg/kg, po after 24 hrs. The series is classed as functional, organism-based. Also noted: dose 3 mg/kg.
A short description of series [2]: Oral bioavailability in rat. As to conditions: in vivo. The series is classed as ADME, organism-based.
The nature of series [3]: Volume of distribution at steady state in rat. It is filed as ADME, organism-based. The following applies: in vivo, read-out: Vdss.
A short description of series [4]: Clearance in dog. It is filed as ADME, organism-based, Canis lupus familiaris. As to conditions: in vivo.
Series [5] in a line: Oral bioavailability in dog. It is filed as ADME, organism-based, Canis lupus familiaris. As to conditions: in vivo.
A short description of series [6]: Octanol-buffer partition coefficient, log D of the compound at pH 7.4 after 30 mins by shake flask method. It is filed as physicochemical.
For a further series, the target named is T1, Hexokinase-4 (Homo sapiens, UniProt P35557).
T1 sequence (P35557 whole entry): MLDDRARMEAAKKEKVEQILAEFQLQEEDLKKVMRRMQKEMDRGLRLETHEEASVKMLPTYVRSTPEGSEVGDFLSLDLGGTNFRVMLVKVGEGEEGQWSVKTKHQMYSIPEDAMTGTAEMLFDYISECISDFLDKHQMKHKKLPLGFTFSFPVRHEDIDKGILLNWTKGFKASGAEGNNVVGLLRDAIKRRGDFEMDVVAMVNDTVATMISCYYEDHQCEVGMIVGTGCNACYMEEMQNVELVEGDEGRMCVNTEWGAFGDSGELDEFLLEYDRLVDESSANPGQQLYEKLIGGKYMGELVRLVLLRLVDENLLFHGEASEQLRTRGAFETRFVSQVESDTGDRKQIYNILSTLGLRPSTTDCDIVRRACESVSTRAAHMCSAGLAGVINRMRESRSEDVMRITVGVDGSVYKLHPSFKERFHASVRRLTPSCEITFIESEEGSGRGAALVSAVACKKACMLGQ
The series is described as follows: Activation of glucokinase (unknown origin). As to conditions: read-out: EC50.

Series [7] can be described thus: Apparent permeability from apical to basolateral side in MDCK cells. It is filed as ADME, cell-based, Canis lupus familiaris. As to conditions: dog.
The species named for another series is Canis familiaris. Description: Unbound clearance in dog. It is filed as ADME, organism-based, Canis lupus familiaris. As to conditions: in vivo.
The nature of series [8]: Clearance in rat. It is filed as ADME, organism-based. As to conditions: in vivo.
Series [9] is described as follows: Volume of distribution at steady state in dog. It is filed as ADME, organism-based, Canis lupus familiaris. The following applies: in vivo, read-out: Vdss.
The species named for series [10] is Rattus norvegicus. Description: Unbound clearance in rat. It is filed as ADME, organism-based. The following applies: in vivo.
A short description of series [11]: Aqueous solubility in PBS buffer at pH 7.4 after 24 hrs by LC-UV analysis. The series is classed as physicochemical.
Series [12] addresses Voltage-gated inwardly rectifying potassium channel KCNH2 (Homo sapiens, UniProt Q12809). Description: Inhibition of human ERG by electrophysiological analysis.

Voltage-gated inwardly rectifying potassium channel KCNH2, sequence (Q12809 whole entry): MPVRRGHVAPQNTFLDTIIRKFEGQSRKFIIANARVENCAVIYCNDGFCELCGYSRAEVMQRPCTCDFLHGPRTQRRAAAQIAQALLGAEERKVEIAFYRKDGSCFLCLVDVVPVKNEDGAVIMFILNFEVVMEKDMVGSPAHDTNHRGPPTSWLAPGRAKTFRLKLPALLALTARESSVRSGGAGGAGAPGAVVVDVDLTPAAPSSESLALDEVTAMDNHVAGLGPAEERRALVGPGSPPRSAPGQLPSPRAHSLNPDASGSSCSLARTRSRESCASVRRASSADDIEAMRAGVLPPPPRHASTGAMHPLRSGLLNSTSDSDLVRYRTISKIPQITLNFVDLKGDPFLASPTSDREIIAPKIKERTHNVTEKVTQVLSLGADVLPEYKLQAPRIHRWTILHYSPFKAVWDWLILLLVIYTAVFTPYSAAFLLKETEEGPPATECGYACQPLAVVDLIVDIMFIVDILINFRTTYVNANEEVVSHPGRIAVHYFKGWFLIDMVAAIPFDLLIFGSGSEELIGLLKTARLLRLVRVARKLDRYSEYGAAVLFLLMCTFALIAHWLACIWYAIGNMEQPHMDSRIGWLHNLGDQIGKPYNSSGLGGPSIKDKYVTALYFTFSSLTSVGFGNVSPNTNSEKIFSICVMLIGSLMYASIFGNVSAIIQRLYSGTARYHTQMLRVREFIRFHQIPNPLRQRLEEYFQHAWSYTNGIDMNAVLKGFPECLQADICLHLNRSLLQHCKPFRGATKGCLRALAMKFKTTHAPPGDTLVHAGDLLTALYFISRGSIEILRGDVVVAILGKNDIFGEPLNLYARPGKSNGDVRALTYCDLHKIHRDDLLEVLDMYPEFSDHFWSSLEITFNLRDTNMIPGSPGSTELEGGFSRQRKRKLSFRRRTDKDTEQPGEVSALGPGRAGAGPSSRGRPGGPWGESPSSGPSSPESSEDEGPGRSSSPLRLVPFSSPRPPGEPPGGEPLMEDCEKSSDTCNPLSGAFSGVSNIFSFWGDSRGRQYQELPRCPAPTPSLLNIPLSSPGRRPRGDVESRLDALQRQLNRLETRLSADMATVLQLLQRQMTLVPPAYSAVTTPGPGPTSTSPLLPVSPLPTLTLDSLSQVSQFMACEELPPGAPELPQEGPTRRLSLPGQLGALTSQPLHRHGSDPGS

For orientation: bioavailability means the share of a dose that reaches the circulation, judged against a reference dose that is usually intravenous. Higher therefore signals good availability. As usually defined, the clearance is the rate of elimination divided by the concentration. One may read the logD as the decadic logarithm of the distribution of all forms, ionised or not, between an organic phase and buffer at a given pH. What is called EC50 is the concentration giving half of the maximal effect. In general, Papp A→B refers to the apparent permeability from the apical to the basolateral side of a cell layer. In general, solubility refers to the concentration that dissolves in the medium under given conditions. Low values mean little dissolved substance, high ones much dissolved substance. On to `O=C(Nc1ccc(F)cn1)[C@H](CN1CC(O)C1)Oc1ncnc2c1cnn2-c1c(Cl)cccc1Cl`, for which, in the series with Rattus norvegicus [1], the result was Active. Besides, the bioavailability worked out at 28% in [2] and 32% in series [5]. The Vd in series [3] amounted to 1.7 L/kg; in series [9], 1.1 L/kg. For the same molecule, the clearance in series [4] is 30 mL/min/kg; in [8] it was 42 mL/min/kg. For the same molecule, the logD at 0.5 h in [6] turned out to be 2.7. In addition, on Hexokinase-4, the EC50 was found to be 49 nM. Besides, the Papp A→B in [7] was determined as 7.3 ×10⁻⁶ cm/s. In addition, the CL free in the series filed under Canis familiaris was 210 mL/min/kg; in the series listed under Rattus norvegicus [10] it was 320 mL/min/kg. In addition, the concentration in solution in series [11] (solubility at 24 h) came to 80 µM (≈ 41.5 µg/mL).

For orientation: IC50 means the point on the concentration scale where inhibition reaches its midpoint. Low readings indicate inhibition by little substance, high ones a need for much substance. Take `O=C(Nc1ccc(F)cn1)[C@H](CN1CC(O)C1)Oc1ncnc2c1cnn2-c1ccccc1Cl`: the result in the series with Rattus norvegicus [1] was Active. In addition, 36000 nM corresponded to half-maximal inhibition in series [12] (IC50). The bioavailability in series [2] came out at 75%; in series [5], 12%. In addition, the Vd in series [3] and in [9] was 1.5 L/kg each time. In addition, the clearance in series [4] was determined as 51 mL/min/kg; in series [8], 31 mL/min/kg. This molecule also registered a logD at 0.5 h in [6] of 2.3. Further, on Hexokinase-4, the concentration for a half-maximal effect (EC50) worked out at 78 nM. Further, the Papp A→B in series [7] turned out to be 9.8 ×10⁻⁶ cm/s. Also, the values for the CL free in the series listed under Canis familiaris and in the series listed under Rattus norvegicus [10] were 170 mL/min/kg and 90 mL/min/kg, respectively. This molecule also gave a solubility at 24 h in series [11] greater than 750 µM.

In series [12], `Cc1cnc(NC(=O)[C@H](CO[C@H](C)CO)Oc2ncnc3c2cnn3-c2c(Cl)cccc2C#N)cn1` displayed an IC50 greater than 100000 nM. Further, the bioavailability in [2] stood at 100%; in series [5], 43%. Besides, the Vd stood at 1.5 L/kg in series [3] and 0.9 L/kg in [9]. For the same molecule, the clearance in series [4] and in series [8] was 18 mL/min/kg throughout. Moreover, the pH-dependent lipophilicity (logD) at 0.5 h in series [6] is 1.9. Also, on Hexokinase-4, the EC50 worked out at 78 nM. The Papp A→B in series [7] is 7.8 ×10⁻⁶ cm/s. For the same molecule, the CL free in the series filed under Canis familiaris was determined as 49 mL/min/kg; in the series filed under Rattus norvegicus [10] it was 39 mL/min/kg. Also, the solubility at 24 h in [11] was greater than 50 µM.

For `Cc1cnc(NC(=O)[C@H](CN2CC(O)C2)Oc2ncnc3c2cnn3-c2c(Cl)cccc2Cl)cn1`, the midpoint of inhibition in series [12], the IC50, lay at 62000 nM. Moreover, the bioavailability is 38% in series [2] and 87% in series [5]. Moreover, the Vd in series [3] amounted to 1.2 L/kg; in series [9] it was 1.1 L/kg. Further, the figures for the clearance in series [4] and in series [8] were 18 mL/min/kg and 225 mL/min/kg, respectively. In addition, the pH-dependent lipophilicity (logD) at 0.5 h in [6] came out at 2.3. Further, the EC50 on Hexokinase-4 was 96 nM. In series [7], the Papp A→B stood at 3.5 ×10⁻⁶ cm/s. Also, the CL free worked out at 60 mL/min/kg in the series listed under Canis familiaris and 74 mL/min/kg in the series filed under Rattus norvegicus [10]. In [11], this molecule yielded a solubility at 24 h greater than 750 µM.
